Experimental data as given in ChEMBL document CHEMBL1134332, “Design of remarkably simple, yet potent urea-based inhibitors of glutamate carboxypeptidase II (NAALADase)” (J Med Chem, 2001).
The source made the active and inactive calls. No cut-off for these calls is given here. Peptide text beside a SMILES is read from it.

How the values were obtained:
[1] = molecular target: Glutamate carboxypeptidase 2 (Rattus norvegicus) (UniProt P70627); test: Percentage inhibition at 1 uM; IA means inactive
Chain of Glutamate carboxypeptidase 2 (Rattus norvegicus) (P70627 whole entry, looked up): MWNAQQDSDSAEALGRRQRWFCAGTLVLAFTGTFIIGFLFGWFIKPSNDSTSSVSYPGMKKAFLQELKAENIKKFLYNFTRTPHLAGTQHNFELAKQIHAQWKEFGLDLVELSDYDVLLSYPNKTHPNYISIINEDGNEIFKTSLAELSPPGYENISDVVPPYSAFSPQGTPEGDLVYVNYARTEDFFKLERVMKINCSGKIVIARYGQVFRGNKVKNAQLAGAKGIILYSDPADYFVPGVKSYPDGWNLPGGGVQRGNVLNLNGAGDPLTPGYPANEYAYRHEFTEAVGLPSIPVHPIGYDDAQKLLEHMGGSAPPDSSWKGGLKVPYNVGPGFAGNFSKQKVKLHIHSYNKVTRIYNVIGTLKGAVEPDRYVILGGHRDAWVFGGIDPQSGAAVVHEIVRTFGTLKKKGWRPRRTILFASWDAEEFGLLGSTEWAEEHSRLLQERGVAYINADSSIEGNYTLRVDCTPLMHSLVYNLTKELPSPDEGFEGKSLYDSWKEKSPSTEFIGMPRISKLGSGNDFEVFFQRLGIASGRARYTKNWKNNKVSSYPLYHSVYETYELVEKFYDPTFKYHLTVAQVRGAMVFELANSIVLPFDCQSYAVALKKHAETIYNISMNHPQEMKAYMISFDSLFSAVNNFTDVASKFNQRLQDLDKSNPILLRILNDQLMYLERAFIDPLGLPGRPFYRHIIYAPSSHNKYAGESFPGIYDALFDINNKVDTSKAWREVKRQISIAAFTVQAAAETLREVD

[2] = molecular target: T1, Glutamate carboxypeptidase 2 (Rattus norvegicus, UniProt P70627); test: Inhibitory activity against expressed rat Glutamate carboxypeptidase II, using a substrate concentration of 5 uM
T1 sequence (P70627 whole entry): as the sequence (P70627 whole entry, looked up) above

[3] = molecular target: T1, Glutamate carboxypeptidase 2; test: Inhibitory activity against expressed rat Glutamate carboxypeptidase IIusing a substrate concentration of 5 uM
[4] = molecular target: Glutamate carboxypeptidase 2 (Rattus norvegicus) (UniProt P70627); test: Percentage inhibition at 100 uM
[5] = molecular target: Glutamate carboxypeptidase 2 (Rattus norvegicus) (UniProt P70627); test: Percentage inhibition at 1 uM against rat Glutamate carboxypeptidase II, using a substrate concentration of 5 uM
[6] = molecular target: Glutamate carboxypeptidase 2 (Rattus norvegicus) (UniProt P70627); test: Percentage inhibition at 1 uM against rat Glutamate carboxypeptidase II using a substrate concentration of 5 uM

SMILES: O=C(N[C@@H](CS)C(=O)O)N[C@@H](CS)C(=O)O
- IA [1]: inactive

SMILES: CC(C)(C)SCC(NC(=O)N[C@@H](CCC(=O)O)C(=O)O)C(=O)O (stereo partly specified)
- IC50 [2]: 29 nM

SMILES: N[C@@H](CC(=O)O)C(=O)N[C@@H](CCC(=O)O)C(=O)O (H-Asp-Glu-OH)
- IC50 [3]: 2400 nM

SMILES: N[C@@H](CC(=O)O)C(=O)N[C@@H](CC(=O)O)C(=O)O (H-Asp-Asp-OH)
- inhibition [4]: 42%

SMILES: O=C(O)CC[C@H](CP(=O)(O)C[C@@H](CCC(=O)O)C(=O)O)C(=O)O
- IC50 [2]: 21.7 nM

SMILES: O=C(O)CC[C@H](NC(=O)N[C@@H](CS)C(=O)O)C(=O)O
- IC50 [2]: 6.9 nM

SMILES: N[C@@H](CCC(=O)O)C(=O)N[C@@H](CCC(=O)O)C(=O)O (H-Glu-Glu-OH)
- IC50 [2]: 750 nM

SMILES: O=C(O)CCC(CP(=O)(O)O)C(=O)O (stereo unspecified)
- IC50 [2]: 5.1 nM

SMILES: O=C(O)CC[C@H](NC(=O)C(=O)N[C@@H](CCC(=O)O)C(=O)O)C(=O)O
- inhibition [5]: 9%

SMILES: CC(C)(C)NC(=O)N[C@@H](CCC(=O)O)C(=O)O
- inhibition [6]: 10%

SMILES: O=C(O)CC[C@H](NC(=O)NCC(=O)O)C(=O)O
- inhibition [6]: 46%
